We go through one compound from patent US20090176817A1, “Method of Treatment of Diarrhea-Predominant Irritable Bowel Syndrome in a Subject” (priority 2005, published 2009).

Each structure is given as a SMILES string.

A short description of series [1]: clinical. The settings on record: both, human, in vivo.
Protocol: Diurnal variations in cilansetron pharmacokinetics have been evaluated in a randomized, double-blind, placebo-controlled, 2-way crossover study in 9 male and 9 female healthy subjects, aged 21 to 39 years. Subjects were randomized to receive 2 treatments (cilansetron 16 mg tablet and placebo) during the 2 treatment periods. During each treatment period, subjects received a single dose of their assigned treatment on the first day (Day 1), after which they received the same treatment TID for 4 days (Days 2-5). There was a 10-day washout period between treatment periods. Subjects were fasted for at least 2 hours before and following each dose, and heavy physical activity was restricted. Serial blood samples for the measurement of multiple-dose pharmacokinetics of cilansetron were collected up to 24 hours postdose on Day 5.
Series [2] deals with patients with malignant tumors. In words: Study S.241.2.101: cisplatin-induced nausea and vomiting. Type of series: in vivo, human. The settings on record: IV 8 mg TID. How it is done:
The effect of cilansetron on nausea and vomiting has been studied in 2 clinical studies in cancer patients. Both studies were randomized, singleblind, positive-controlled, parallel-group, pilot studies in male and female patients with malignant tumors, to investigate the effect of cilansetron on cytostatic-induced nausea and vomiting. In both studies, patients were on their first cycle of chemotherapy and were being treated with cisplatin (275 mg/m2 as a single dose in Study S.24 1.2.10 1 and […] for 5 days in Study K.24 1 S O 17). Patients in Study S.24 1.2.10 1 were aged 40-74 years (ITT population=16) and patients in Study K.24 1 S O 17 were aged 39-74 years (ITT population=19). In both studies, patients were randomized to receive either […] or IV ondansetron 8 mg TID for 1 day (Study S.241.2.101) or 5 days (Study K.2415017), corresponding to the day(s) of their cisplatin administration. If nausea and vomiting were completely controlled on a treatment day, the second and/or third doses of cilansetron or ondansetron could be omitted on that day. The primary efficacy parameter in both studies was the combination of the occurrence of vomiting and the severity of nausea, with a responder being defined as a patient with no vomiting and not more than mild nausea during the treatment day(s). […]

`Cc1nccn1C[C@H]1CCc2c(c3cccc4c3n2CCC4)C1=O` [Cilansetron, (R)-(−)-4,5,6,8,9,10-hexahydro-10-[(2-methyl-1H-imidazol-1-yl)methyl]-11H-pyrido-[3,2,1-jk]-carbazol-11-one]: in series [1] (Cmax), the Cmax (usually the peak of the concentration-time curve) is 76.9 ng/mL. In addition, in series [1] (Tmax), the Tmax (usually the time from dosing to the highest level) was 1 h. Also, the Response rate in series [2] is 16.7%.
